Consider five compounds from patent publication US10738042B2, “Phosphonamidates that are Bcl family antagonists for use in clinical management of conditions caused or mediated by senescent cells and for treating cancer” (Unity Biotechnology, priority 2018, dated 2020).

Data set [1] has as its system 3MR or INK-ATTAC mice exposed to cigarette smoke. The data set can be described thus: Cigarette smoke COPD model, oxygen saturation by pulse oximeter. Type of data set: in vivo, mouse. The settings on record: after two months of cigarette smoke exposure; FIG. 8. From the text:
The mice used in this study include the 3MR strain, described in US 2017/0027139 A1 and in Demaria et al., Dev Cell. 2014 Dec. 22; 31(6): 722-733. The 3MR mouse has a transgene encoding thymidine kinase that converts the prodrug ganciclovir (GCV) to a compound that is lethal to cells. The enzyme in the transgene is placed under control of the p16 promoter, which causes it to be specifically expressed in senescent cells. Treatment of the mice with GCV eliminates senescent cells.
Other mice used in this study include the INK-ATTAC strain, described in US 2015/0296755 A1 and in Baker et al., Nature 2011 Nov. 2; 479(7372):232-236. The INK-ATTAC mouse has a transgene encoding switchable caspase 8 under control of the p16 promoter. The caspase 8 can be activated by treating the mice with the switch compound AP20187, whereupon the caspase 8 directly induces apoptosis in senescent cells, eliminating them from the mouse.
To conduct the experiment, six-week-old 3MR (n=35) or INK-ATTAC (n=35) mice were chronically exposed to cigarette smoke generated from a Teague TE-10 system, an automatically-controlled cigarette smoking machine that produces a combination of side-stream and mainstream cigarette smoke in a chamber, which is transported to a collecting and mixing chamber where varying amounts of air is mixed with the smoke mixture. The COPD protocol was adapted from the COPD core facility at Johns Hopkins University (Rangasamy et al., 2004, J. Clin. Invest. 114:1248-1259; Yao et al., 2012, J. Clin. Invest. 122:2032-2045).
Mice received a total of 6 hours of cigarette smoke exposure per day, 5 days a week for 6 months. Each lighted cigarette (3R4F research cigarettes containing 10.9 mg of total particulate matter (TPM), 9.4 mg of tar, and 0.726 mg of nicotine, and 11.9 mg carbon monoxide per cigarette [University of Kentucky, Lexington, Ky.]) was puffed for 2 seconds and once every minute for a total of 8 puffs, with the flow rate of 1.05 L/min, to provide a standard puff of 35 cm3. The smoke machine was adjusted to produce a mixture of side stream smoke (89%) and mainstream smoke (11%) by smoldering 2 cigarettes at one time. The smoke chamber atmosphere was monitored for total suspended particulates (80-120 mg/m3) and carbon monoxide (350 ppm). […]
After two months of cigarette smoke (CS) exposure, lung function was assessed by monitoring oxygen saturation using the MouseSTAT PhysioSuite™ pulse oximeter (Kent Scientific). […] Mice were monitored for 30 seconds and the average peripheral capillary oxygen saturation (SpO2) measurement over this duration was calculated.

Data set [2] has as its system cancer cells in human patients. The conditions noted are these: cited from earlier work.
Data set [3] deals with LDLR-/- mice fed a high fat diet. Nature of the data set: Atherosclerosis model, Sudan IV staining of aortas for plaque. Type of data set: in vivo, mouse. The conditions noted are these: HFD; 25 mg/kg intraperitoneally; timepoint 3 (week 12); FIG. 9. As for the experimental part:
(§1) Two groups of LDLR−/− mice (10 weeks) are fed a high fat diet (HFD) (Harlan Teklad TD.88137) having 42% calories from fat, beginning at Week 0 and throughout the study. Two groups of LDLR−/− mice (10 weeks) are fed normal chow (−HFD). From weeks 0-2, one group of HFD mice and −HFD mice are treated with Nutlin-3A (25 mg/kg, intraperitoneally). One treatment cycle is 14 days treatment, 14 days off. Vehicle is administered to one group of HFD mice and one group of −HFD mice. At week 4 (timepoint 1), one group of mice are sacrificed and to assess presence of senescent cells in the plaques. For the some of the remaining mice, Nutlin-3A and vehicle administration is repeated from weeks 4-6. At week 8 (timepoint 2), the mice are sacrificed and to assess presence of senescent cells in the plaques. The remaining mice are treated with Nutlin-3A or vehicle from weeks 8-10. At week 12 (timepoint 3), the mice are sacrificed and to assess the level of plaque and the number of senescent cells in the plaques.
(§2) At the end of timepoint 3, LDLR−/− mice fed a HFD and treated with Nutlin-3A or vehicle (n=3 for all groups) were sacrificed, and aortas were dissected and stained with Sudan IV to detect the presence of lipid. Body composition of the mice was analyzed by MRI, and circulating blood cells were counted by Hemavet™.

Data set [4] has as its system C57BL/6J mice with ACL surgery-induced osteoarthritis. The data set can be described thus: Osteoarthritis model, weight bearing test. The data set is classed as in vivo, mouse. The conditions noted are these: 4 weeks post-surgery; FIG. 6A. As for the experimental part:
(§3) The model was implemented as follows. C57BL/6J mice underwent surgery to cut the anterior cruciate ligament of one rear limb to induce osteoarthritis in the joint of that limb. During week 3 and week 4 post-surgery, the mice were treated with 5.8 μg of Nutlin-3A (n=7) per operated knee by intra-articular injection, q.o.d. for 2 weeks. At the end of 4 weeks post-surgery, joints of the mice were monitored for presence of senescent cells, assessed for function, monitored for markers of inflammation, and underwent histological assessment.
Function of the limbs was assessed 4 weeks post-surgery by a weight bearing test to determine which leg the mice favored. The mice were allowed to acclimate to the chamber on at least three occasions prior to taking measurements. Mice were maneuvered inside the chamber to stand with one hind paw on each scale. The weight that was placed on each hind limb was measured over a three second period. At least three separate measurements were made for each animal at each time point. The results were expressed as the percentage of the weight placed on the operated limb versus the contralateral unoperated limb.

Data set [5] relates to LDLR-/- mice fed a high fat diet. Nature of the data set: Atherosclerosis model, body composition (MRI) and circulating blood cell counts (Hemavet). The data set is classed as in vivo, mouse. The settings on record: timepoint 3 (week 12). As for the experimental part: as §1, §2
For data set [6], the system named is SASP factors and senescent cell markers in the aortic arch. The data set can be described thus: Atherosclerosis model, RT-PCR of SASP factors and senescent cell markers in aortic arches. The conditions noted are these: HFD, 25 mg/kg intraperitoneally. Type of data set: in vivo, mouse. The protocol: as §1, with “At week 8 (timepoint 2), the mice are sacrificed and to assess presence of senescent cells in the plaques. The remaining mice are treated with Nutlin-3A or vehicle from weeks 8-10. At week 12 (timepoint 3), the mice are sacrificed and to assess the level of plaque and the number of senescent cells in the plaques.” left out
At the end of timepoint 1, LDLR−/− mice fed a HFD and treated with Nutlin-3A or vehicle were sacrificed (n=3, all groups), and the aortic arches were dissected for RT-PCR analysis of SASP factors and senescent cell markers. Values were normalized to GAPDH and expressed as fold-change versus age-matched, vehicle-treated LDLR−/− mice on a normal diet.
At the end of timepoint 2, LDLR−/− mice fed a HFD and treated with Nutlin-3A or vehicle (n=3 for all groups) were sacrificed, and aortic arches were dissected for RT-PCR analysis of SASP factors and senescent cell markers. Values were normalized to GAPDH and expressed as fold-change versus age-matched, vehicle-treated LDLR−/− mice on a normal diet.

Data set [7] has as its system C57BL/6J mice with ACL surgery-induced osteoarthritis. Nature of the data set: Osteoarthritis model, histopathology of joint tissue. The data set is classed as in vivo, mouse. The conditions noted are these: FIGS. 6B-6D. The protocol: as §3
For data set [8], the system named is p16, IL-6, MMP13 expression in the operated joint. The data set can be described thus: Osteoarthritis model (ACL surgery), qRT-PCR of senescence markers and SASP factors in operated joints. Type of data set: in vivo, mouse. The conditions noted are these: 5.8 μg per operated knee intra-articular, 4 weeks post-surgery. As for the experimental part:
as §3
Two control groups of mice were included in the studies performed: one group comprising C57BL/6J or 3MR mice that had undergone a sham surgery (n=3) (i.e., surgical procedures followed except for cutting the ACL) and intra-articular injections of vehicle parallel to the GCV (ganciclovir) treated group; and one group comprising C57BL/6J or 3MR mice that had undergone an ACL surgery and received intra-articular injections of vehicle (n=5) parallel to the GCV-treated group. RNA from the operated joints of mice from the Nutlin-3A treated mice was analyzed for expression of SASP factors (mmp3, IL-6) and senescence markers (p16). qRT-PCR was performed to detect mRNA levels.
(In general: Quantitative PCR measures a nucleic acid by following its amplification.)

`CC[C@H](C(=O)N1CCCC[C@H]1C(=O)O[C@H](CCc1ccc(OC)c(OC)c1)c1cccc(OCC(=O)NCC(CNC(=O)COc2cccc([C@@H](CCc3ccc(OC)c(OC)c3)OC(=O)[C@@H]3CCCCN3C(=O)[C@@H](CC)c3cc(OC)c(OC)c(OC)c3)c2)CN(C)C)c1)c1cc(OC)c(OC)c(OC)c1` [AP2018]: in data set [1], the “SpO2 levels compared with untreated controls” value is given as “statistically significant increases”.

On to `CN(C)CC[C@H](CSc1ccccc1)Nc1ccc(S(=O)(=O)NC(=O)c2ccc(N3CCN(Cc4ccccc4-c4ccc(Cl)cc4)CC3)cc2)cc1[N+](=O)[O-]` [ABT-737], for which, in data set [2], the “effect against cancer cells in human patients” value is listed as “effective against some types of cancer cells”.

Take `Nc1nc(O)c2ncn(COC(CO)CO)c2n1` [ganciclovir]: in data set [1], the “SpO2 levels compared with untreated controls” value is “statistically significant increases”.

In the case of `CC1(C)CCC(c2ccc(Cl)cc2)=C(CN2CCN(c3ccc(C(=O)NS(=O)(=O)c4ccc(N[C@H](CCN5CCOCC5)CSc5ccccc5)c(S(=O)(=O)C(F)(F)F)c4)cc3)CC2)C1` [ABT-263], the “SpO2 levels compared with untreated controls” value in data set [1] was “statistically significant increases”.

Turning to `COc1ccc(C2=N[C@@H](c3ccc(Cl)cc3)[C@@H](c3ccc(Cl)cc3)N2C(=O)N2CCNC(=O)C2)c(OC(C)C)c1` [Nutlin-3A], in data set [1], the “SpO2 levels compared with untreated controls” value is “statistically significant increases”. Further, the “reduction of surface area covered by plaques in the descending aorta” value in data set [3] was “about 45%”. The “weight bearing: favoring of the unoperated hind limb over the operated hind limb” value in data set [4] is reported as “abrogated this effect”. Besides, in data set [5], the “lymphocyte counts versus vehicle treated mice” value is “equivalent” and the “platelet counts versus vehicle treated mice” value is “equivalent”. The “expression of SASP factors and senescent cell markers MMP3, MMP13, PAI1, p21, IGFBP2, IL-1A, IL-1B” value in data set [6] (after one treatment cycle (timepoint 1, week 4)) is listed as “reduced expression”. In addition, the “expression of SASP factors and senescent cell markers in the aortic arch” value in data set [6] (multiple treatment cycles (timepoint 2, week 8)) is listed as “reduced expression of most markers”. Besides, the “destruction of the proteoglycan layer (histopathology)” value in data set [7] is on record as “completely abrogated this effect”. The “expression of p16 in the tissue” value in data set [8] (q.o.d. for 2 weeks, FIG. 5A) is given as “reduced the expression back to below the level of the controls”. In data set [8] (q.o.d. for 2 weeks, FIG. 5B), the “expression of IL-6 in the tissue” value is “reduced the expression back to below the level of the controls”. Also, the “expression of MMP13 in the tissue” value in data set [8] (q.o.d. for 2 weeks, FIG. 5C) is given as “reduced the expression back to below the level of the controls”. Moreover, the “senescent cells in the joint” value in data set [8] is recorded as “cleared senescent cells from the joint”.
